Assay results published in US6358999B2, “Use of zinc tranexamate in the treatment of diabetes” (Hamari Chemicals, LTD, priority 2000, dated 2002).

Legend:
intestinal α-glucosidase [1] = assay: Inhibition of intestinal α-glucosidase activity of normal mouse (intestinal homogenate, glucose production); type: biochemical; conditions: for Glucose (glucose production from isomaltose): substrate isomaltose; for Glucose (glucose production from isomaltose) / Glucose (glucose production from maltose) / Glucose (glucose production from sucrose): 37° C., 30 minutes; for Glucose (glucose production from maltose): substrate maltose
Protocol: (§1) Intestinal tract enucleated from a normal mouse was homogenized by the conventional method after removing membrane mucosa. As a substrate, sucrose, starch, maltose or isomaltose was used. The homogenate was incubated with the substrate in the presence of a test compound (Y-4 or zinc chloride) at 37° C. for 30 minutes. The reaction mixture was centrifuged and the glucose concentration in the resulting supernatant was assayed. The glucose assay was conducted calorimetrically by adding a chromogenic reagent (0.47 mol/l of orthotoluidine, 16 mol/l of acetic acid, 10 mmol/l of boric acid) to the supernatant, heating the mixture in a boiling water bath for 8 minutes and measuring the absorbance at 635 nm. α-Glucosidase activity expressed in terms of glucose concentration/mg protein was calculated.

intestinal α-glucosidase [2] = assay: Inhibition of intestinal α-glucosidase activity of streptozocin-induced diabetic mouse; type: biochemical; conditions: for Glucose (glucose production from maltose) / Glucose (glucose production from sucrose): diabetic mouse; for Glucose (glucose production from maltose): substrate maltose; for Glucose (glucose production from sucrose): substrate sucrose
Protocol: as §1
Example 5 was repeated using intestinal tract enucleated from a diabetic mouse induced by the treatment with streptozocin instead of intestinal tract enucleated from a normal mouse to determine the inhibitory effect of Y-4 on α-glycosidase activity. The intestinal α-glucosidase activity was higher in streptozocin-induced diabetic mouse than in normal mouse. […] The inhibitory effect of Y-4 was more remarkable in the diabetic mouse than in normal mouse.

SMILES: [Cl-].[Cl-].[Zn+2] [ZnCl2, zinc chloride]
- Inhibition of the enzymatic reaction with other substrates (intestinal α-glucosidase [1]; starch, maltose, isomaltose): not effective
- Glucose (glucose production from isomaltose) (intestinal α-glucosidase [1]; inhibitor 5 mM): 6.207 ± 0.230 mg/mg protein
- Glucose (glucose production from isomaltose) (intestinal α-glucosidase [1]; inhibitor 10 mM): 5.868 ± 0.496 mg/mg protein
- Glucose (glucose production from isomaltose) (intestinal α-glucosidase [1]; inhibitor 30 mM): 6.510 ± 0.169 mg/mg protein
- Glucose (glucose production from isomaltose) (intestinal α-glucosidase [1]; inhibitor 50 mM): 5.421 ± 0.339 mg/mg protein
- Glucose (glucose production from maltose) (intestinal α-glucosidase [1]; inhibitor 5 mM): 19.917 ± 0.932 mg/mg protein
- Glucose (glucose production from maltose) (intestinal α-glucosidase [1]; inhibitor 10 mM): 18.114 ± 0.145 mg/mg protein
- Glucose (glucose production from maltose) (intestinal α-glucosidase [1]; inhibitor 30 mM): 15.657 ± 0.036 mg/mg protein
- Glucose (glucose production from maltose) (intestinal α-glucosidase [1]; inhibitor 50 mM): 10.442 ± 0.290 mg/mg protein
- Inhibition of the enzymatic reaction with sucrose (intestinal α-glucosidase [1]; substrate sucrose): as effective as Y-4
- Glucose (glucose production from sucrose) (intestinal α-glucosidase [1]; substrate sucrose, inhibitor 5 mM): 3.509 ± 0.254 mg/mg protein
- Glucose (glucose production from sucrose) (intestinal α-glucosidase [1]; substrate sucrose, inhibitor 10 mM): 1.658 ± 0.078 mg/mg protein
- Glucose (glucose production from sucrose) (intestinal α-glucosidase [1]; substrate sucrose, inhibitor 30 mM): 0.714 ± 0.097 mg/mg protein
- Glucose (glucose production from sucrose) (intestinal α-glucosidase [1]; substrate sucrose, inhibitor 50 mM): 0.133 ± 0.024 mg/mg protein
- Glucose (glucose production from maltose) (intestinal α-glucosidase [2]; inhibitor 5 mM): 28.691 ± 1.222 mg/mg protein
- Glucose (glucose production from maltose) (intestinal α-glucosidase [2]; inhibitor 10 mM): 20.698 ± 0.442 mg/mg protein
- Glucose (glucose production from maltose) (intestinal α-glucosidase [2]; inhibitor 30 mM): 21.175 ± 0.105 mg/mg protein
- Glucose (glucose production from maltose) (intestinal α-glucosidase [2]; inhibitor 50 mM): 21.838 ± 0.652 mg/mg protein
- Glucose (glucose production from sucrose) (intestinal α-glucosidase [2]; inhibitor 5 mM): 13.346 ± 0.411 mg/mg protein
- Glucose (glucose production from sucrose) (intestinal α-glucosidase [2]; inhibitor 10 mM): 6.716 ± 0.145 mg/mg protein
- Glucose (glucose production from sucrose) (intestinal α-glucosidase [2]; inhibitor 30 mM): 5.772 ± 0.121 mg/mg protein
- Glucose (glucose production from sucrose) (intestinal α-glucosidase [2]; inhibitor 50 mM): 4.973 ± 0.024 mg/mg protein
- Inhibition of intestinal α-glucosidase, all substrates (intestinal α-glucosidase [2]; streptozocin-induced diabetic mouse): only weak inhibitory effects
